Laboratory results published in patent US20130059876A1, “LIQUID NASAL SPRAY CONTAINING LOW-DOSE NALTREXONE” (L Molteni & C Dei Fratelli Alitti Societa Di Esercizio S.p.A, priority 2010, published 2013).
“And” between values parts separate entries of the source, which are not always exact repeats. Equal entries are not always repeated.

Key:
[1] = system: Oncologic patients receiving therapy with morphine orally; experiment: Clinical study: naltrexone in oncologic patients receiving therapy with morphine orally; assay type: in vivo; settings: individual patient, ½ hour before oral morphine (average 40 mg +/- 10 mg)
[2] = system: Spine patients undergoing therapy with morphine by the spinal route; experiment: Clinical study: naltrexone in spine patients undergoing therapy with morphine by the spinal route; assay type: in vivo; settings: individual patient, ½ hour before epidural load, spinal morphine (average 4.8 mg +/- 0.4 mg)
patients = patients (total number 80) before treatment with Naltrexone
[3] = naltrexone 0.125 mcg every 12 hours
[4] = naltrexone 2.5 mcg every 12 hours
[5] = naltrexone 5 mcg every 12 hours
[6] = naltrexone 1 mcg every 12 hours

SMILES: O=C1CC[C@@]2(O)[C@H]3Cc4ccc(O)c5c4[C@@]2(CCN3CC2CC2)[C@H]1O5 [Naltrexone, naltrexone]
- Analgesia (%): analgesic efficacy after administration of naltrexone ([1]; naltrexone 1 mg every 12 hours): 100% (8×) and 90% (2×) and 65% (2×) and 60% (2×) and 70% (3×) and 65%** (3×) and 55% and 75%** and 70%** and 85% (2×) and 45%** and 45%
- Benefit (%): percentage reduction of adverse effects ([1]; naltrexone 1 mg every 12 hours): 90% (3×) and 65% (8×) and 40% (2×) and 70% (4×) and 100% (3×) and 75% and 95% and 0% and 55% and 50% and 80% (2×)
- Analgesia (%): analgesic efficacy after administration of naltrexone [1, 3]: 45% (2×) and 55%** and 65%** and 60%
- Benefit (%): percentage reduction of adverse effects [1, 3]: 65% (3×) and 40% and 100%
- Analgesia (%): analgesic efficacy after administration of naltrexone ([1]; naltrexone 0.125 mcg/day): 60%
- Benefit (%): percentage reduction of adverse effects ([1]; naltrexone 0.125 mcg/day): 100%
- Analgesia (%): analgesic efficacy after administration of naltrexone [1, 4]: 0% and 45% (7×) and 55% (2×) and 60%** and 100% (2×) and 70% and 60% (3×) and 40%
- Benefit (%): percentage reduction of adverse effects [1, 4]: 100% and 80% (5×) and 70% and 50% (3×) and 65% (2×) and 40% and 60% (2×) and 25% and 55% and 90%
- Analgesia (%): analgesic efficacy after administration of naltrexone ([1]; naltrexone 2.5 mcg/day): 60%
- Benefit (%): percentage reduction of adverse effects ([1]; naltrexone 2.5 mcg/day): 90%
- Analgesia (%): analgesic efficacy after administration of naltrexone [1, 5]: 45% (2×) and 55% (5×) and 70% and 100% (3×) and 90% (3×) and 60% (3×) and 65% and 60%** (2×) and 65%** and 55%** and 70%**
- Benefit (%): percentage reduction of adverse effects [1, 5]: 60% (4×) and 0% and 70% and 50% (3×) and 45% (4×) and 85% (2×) and 55% (2×) and 35% and 40% (2×) and 65% and 100% (2×)
- Analgesia (%): analgesic efficacy after administration of naltrexone ([2]; naltrexone 1 mg every 12 hours): 95% and 60% and 65%
- Benefit (%): percentage reduction of adverse effects ([2]; naltrexone 1 mg every 12 hours): 65% (2×) and 50%
- Analgesia (%): analgesic efficacy after administration of naltrexone [2, 6]: 65% and 45% (2×)
- Benefit (%): percentage reduction of adverse effects [2, 6]: 65% and 70% and 100%
- Analgesia (%): analgesic efficacy after administration of naltrexone [2, 4]: 45% (2×) and 75% and 60% and 55% (2×) and 90% and 0% and 100% (3×) and 85%
- Benefit (%): percentage reduction of adverse effects [2, 4]: 45% (2×) and 80% (4×) and 60% (3×) and 100% (2×) and 95%
- Analgesia (%): analgesic efficacy after administration of naltrexone [2, 5]: 45% and 100% and 60% (3×) and 35% and 85% and 15%
- Benefit (%): percentage reduction of adverse effects [2, 5]: 70% (2×) and 95% and 50% (3×) and 65% and 30%

SMILES: CN1CC[C@]23c4c5ccc(O)c4O[C@H]2[C@@H](O)C=C[C@H]3[C@H]1C5 [morphine]
- Incidence of adverse effects from morphine: Asthenia (patients): 43.3%
- Incidence of adverse effects from morphine: Constipation (patients): 70%
- Incidence of adverse effects from morphine: Dizziness (patients): 13.3%
- Incidence of adverse effects from morphine: Drowsiness (patients): 30%
- Incidence of adverse effects from morphine: Headache (patients): 6.7%
- Incidence of adverse effects from morphine: Inappetence (patients): 46.7%
- Incidence of adverse effects from morphine: Nausea (patients): 53.3%
- Incidence of adverse effects from morphine: Pruritus (patients): 30%
- Incidence of adverse effects from morphine: Vomiting (patients): 53.3%
